Results: patent publication US20240189255A1, “METHODS OF TREATMENT OF OSTEOARTHRITIS WITH TRANSDERMAL CANNABIDIOL GEL” (ZYNERBA PHARMACEUTICALS, INC., priority 2017, published 2024)

Tests used:
[1] = test system: patients with confirmed osteoarthritis of the knee; assay: Double-blind, multi-center, placebo-controlled 12-week trial: worst knee pain score, WOMAC physical function, composite responders; type: in vivo, human; set-up: mean reduction from baseline in average worst knee pain scores / Worst Knee Pain Score: scale not given here
Experimental: (§1) Three hundred and twenty (320) patients aged 41 to 78 years of age with confirmed osteoarthritis of the knee were randomized in the double-blind, multi-center trial. Patients who completed the one-week washout and the seven-to-10-day baseline phase were randomized 1:1:1 to receive either 250 mg of CBD daily, 500 mg of CBD daily, or placebo, for 12 weeks. […] The 250 mg and 500 mg doses were administered as a 4.2% (wt/wt) CBD gel.
Across all participants, patients on 250 mg of CBD daily dosage achieved a 2.64 mean reduction from baseline in average worst knee pain scores at week 12; patients on 500 mg of CBD daily achieved a 2.83 mean reduction from baseline in average worst knee pain scores at week 12; and patients on placebo achieved a 2.37 mean reduction from baseline in average worst knee pain scores at week 12. […] A mixed-model repeated measures (MMRM) model was used to test for differences between active treatment groups and placebo based on all weekly average worst knee pain scores from Baseline to Week 12.
Over an initial 7 day period, patients were instructed to end use of other osteoarthritic treatment such as NSAID or COX-2 inhibitor, but were permitted to use acetaminophen for rescue use. At this time, baseline mean worst knee pain was identified for each patient. During the study, rescue use of acetaminophen was permitted for both active and placebo study groups, and there was no difference among the groups in prevalence of rescue use.
Fisher's Exact Test was used to test for differences in composite responders between each active treatment and placebo at LOCF. In the composite responder analysis, a positive response on the composite response analysis indicated a ≥30 percent reduction in worst average daily pain scores and a >20 percent improvement in WOMAC (Western Ontario & McMaster Universities Osteoarthritis Index) physical function score.
The study data was also analyzed with regard to the active dose per weight of the patient (i.e., dosage/weight in mg CBD/kg weight of patient). For this analysis, the patient population was divided into three groups: 0-25 percentile, 25-75 percentile, and 75-100 percentile, by dose/weight. Table 9 is a summary of composite responder analysis at last observation Dose/Weight Quartile 0-25%. Table 10 is a summary of composite responder analysis at last observation dose/weight quartile 25-75%. Table 11 is a summary of composite responder analysis at last observation dose/weight quartile 75-100%.

[2] = Pharmacokinetic data: plasma concentrations in the 12-week osteoarthritis trial; type: in vivo, human
Experimental: as §1

[3] = 250 mg CBD, efficacy patients, last observation, 93 assessed
[4] = 250 mg CBD, efficacy patients, last observation, 106 assessed
[5] = 500 mg CBD, efficacy patients, last observation, 91 assessed
[6] = 500 mg CBD, efficacy patients, last observation, 105 assessed
[7] = Dose/Weight Quartile 0-25%, 250 mg, last observation, 46 assessed, p=0.010

Q: Which results are given for `C=C(C)[C@@H]1CCC(C)=C[C@H]1c1c(O)cc(CCCCC)cc1O` [CBD, 2-[3-methyl-6-(1-methylethenyl)-2-cyclohexen-1-yl]-5-pentyl-1,3-benzenediol]?
A: 20 Percent Responders in Physical Function WOMAC Score: No, number of patients [1, 3]: 33; 20 Percent Responders in Physical Function WOMAC Score: No, percent of patients [1, 3]: (35.5) %; 20 Percent Responders in Physical Function WOMAC Score: Yes, number of patients [1, 3]: 60; 20 Percent Responders in Physical Function WOMAC Score: Yes, percent of patients [1, 3]: (64.5) %; Composite Responder: No, number of patients [1, 3]: 44; Composite Responder: No, percent of patients [1, 3]: (47.3) %; Composite Responder: Yes, number of patients ([1]; 250 mg CBD, efficacy patients, last observation, 93 assessed, p=0.016 vs placebo): 49; 30 Percent Reduction in Diary Pain: No, number of patients [1, 4]: 53; 30 Percent Reduction in Diary Pain: No, percent of patients [1, 4]: (50.0) %; 30 Percent Reduction in Diary Pain: Yes, number of patients [1, 4]: 53; 30 Percent Reduction in Diary Pain: Yes, percent of patients [1, 4]: (50.0) %; responder rate based on ≥30% reduction in worst pain severity ([1]; 250 mg of CBD daily, week 8, p=0.037): Statistically significant; 20 Percent Responders in Physical Function WOMAC Score: No, number of patients [1, 5]: 37; 20 Percent Responders in Physical Function WOMAC Score: No, percent of patients [1, 5]: (40.7) %; 20 Percent Responders in Physical Function WOMAC Score: Yes, number of patients [1, 5]: 54; 20 Percent Responders in Physical Function WOMAC Score: Yes, percent of patients [1, 5]: (59.3) %; Composite Responder: No, number of patients [1, 5]: 50; Composite Responder: No, percent of patients [1, 5]: (54.9) %; Composite Responder: Yes, number of patients ([1]; 500 mg CBD, efficacy patients, last observation, 91 assessed, p=0.169 vs placebo): 41; 30 Percent Reduction in Diary Pain: No, number of patients [1, 6]: 54; 30 Percent Reduction in Diary Pain: No, percent of patients [1, 6]: (51.4) %; 30 Percent Reduction in Diary Pain: Yes, number of patients [1, 6]: 51; 30 Percent Reduction in Diary Pain: Yes, percent of patients [1, 6]: (48.6) %; 20 Percent Responders in Physical Function WOMAC Score: Yes, percent of patients ([1]; Dose/Weight Quartile 0-25%, 250 mg, last observation, 46 assessed): 69.6%; Composite Responders: Yes, number of patients [1, 7]: 27; Composite Responders: Yes, percent of patients [1, 7]: 58.7%; mean reduction from baseline in average worst knee pain scores ([1]; all participants, 250 mg CBD daily, week 12, placebo 2.37, not statistically significant): 2.64; mean reduction from baseline in average worst knee pain scores ([1]; all participants, 500 mg CBD daily, week 12, placebo 2.37, not statistically significant): 2.83; mean reduction from baseline in average worst knee pain scores ([1]; baseline pain score ≥7, both CBD dosage groups combined, week 4, placebo 1.6, p=0.029): 2.17; mean reduction from baseline in average worst knee pain scores ([1]; baseline pain score ≥7, both CBD dosage groups combined, week 8, placebo 2.22, p=0.054): 3.02; mean reduction from baseline in average worst knee pain scores ([1]; baseline pain score ≥7, both CBD dosage groups combined, week 12, placebo 2.52, p=0.086): 3.29; Composite Responders: Yes, percent of patients ([1]; dose/weight quartile 25-75%, 250 mg, last observation, 47 assessed, p=0.194): 46.8%; Composite Responders: Yes, percent of patients ([1]; dose/weight quartile 25-75%, 500 mg, last observation, 45 assessed, p=0.133): 48.9%; Composite Responders: Yes, percent of patients ([1]; dose/weight quartile 75-100%, 500 mg, last observation, 46 assessed, p=0.453): 41.3%; Composite Responders ([1]; male patients, 250 mg, LOCF, placebo 27%, p=0.003): 60%; Worst Knee Pain Score, % reduction ([1]; male patients, 250 mg, wk 4): 24%; Worst Knee Pain Score ([1]; male patients, 250 mg, wk 4, baseline 6.77, p=0.156): 5.05; Worst Knee Pain Score, % reduction ([1]; male patients, 250 mg, wk 8): 34%; Worst Knee Pain Score ([1]; male patients, 250 mg, wk 8, baseline 6.77, p=0.066): 4.47; Worst Knee Pain Score, % reduction ([1]; male patients, 250 mg, wk 12): 39%; Worst Knee Pain Score ([1]; male patients, 250 mg, wk 12, n=47, baseline 6.77, p=0.049): 4.16; Composite Responders ([1]; male patients, 500 mg, LOCF, placebo 27%, p=0.174): 41%; Worst Knee Pain Score, % reduction ([1]; male patients, 500 mg, wk 4): 22%; Worst Knee Pain Score ([1]; male patients, 500 mg, wk 4, baseline 6.85, p=0.323): 5.33; Worst Knee Pain Score, % reduction ([1]; male patients, 500 mg, wk 8): 30%; Worst Knee Pain Score ([1]; male patients, 500 mg, wk 8, baseline 6.85, p=0.474): 4.73; Worst Knee Pain Score, % reduction ([1]; male patients, 500 mg, wk 12): 33%; Worst Knee Pain Score ([1]; male patients, 500 mg, wk 12, n=38, baseline 6.85, p=0.193): 4.44; mean reduction from baseline in average worst knee pain scores ([1]; men, 250 mg of CBD daily, week 4, placebo 1.19, p=0.156): 1.65; mean reduction from baseline in average worst knee pain scores ([1]; men, 250 mg of CBD daily, week 8, placebo 1.56, p=0.066): 2.30; mean reduction from baseline in average worst knee pain scores ([1]; men, 250 mg of CBD daily, week 12, placebo 1.70, p=0.049): 2.68; pain reduction over placebo ([1]; patients having a baseline knee pain score less than 7, FIG. 10): not statistically significant; Composite Responders ([1]; patients with ≥7 mean baseline pain score, CBD groups combined, placebo 33%, p=0.083): 51%; Worst Knee Pain Score, % reduction ([1]; patients with ≥7 mean baseline pain score, CBD groups combined, wk4): 28%; Worst Knee Pain Score ([1]; patients with ≥7 mean baseline pain score, CBD groups combined, wk4, baseline 7.7, p=0.029): 5.45; Worst Knee Pain Score, % reduction ([1]; patients with ≥7 mean baseline pain score, CBD groups combined, wk8): 40%; Worst Knee Pain Score ([1]; patients with ≥7 mean baseline pain score, CBD groups combined, wk8, baseline 7.7, p=0.054): 4.61; Worst Knee Pain Score, % reduction ([1]; patients with ≥7 mean baseline pain score, CBD groups combined, wk12): 43%; Worst Knee Pain Score ([1]; patients with ≥7 mean baseline pain score, CBD groups combined, wk12, n=75, baseline 7.7, p=0.086): 4.34; Worst Knee Pain Score, % reduction ([1]; total patients, 250 mg, wk 4): 24%; Worst Knee Pain Score ([1]; total patients, 250 mg, wk 4, baseline 6.8, p=0.432): 5.09; Worst Knee Pain Score, % reduction ([1]; total patients, 250 mg, wk 8): 34%; Worst Knee Pain Score ([1]; total patients, 250 mg, wk 8, baseline 6.8, p=0.193): 4.43; Worst Knee Pain Score, % reduction ([1]; total patients, 250 mg, wk 12): 38%; Worst Knee Pain Score ([1]; total patients, 250 mg, wk 12, n=76, baseline 6.8, p=0.517): 4.23; Worst Knee Pain Score, % reduction ([1]; total patients, 500 mg, wk 4): 27%; Worst Knee Pain Score ([1]; total patients, 500 mg, wk 4, baseline 6.87, p=0.067): 4.96; Worst Knee Pain Score, % reduction ([1]; total patients, 500 mg, wk 8): 37%; Worst Knee Pain Score ([1]; total patients, 500 mg, wk 8, baseline 6.87, p=0.21): 4.27; Worst Knee Pain Score, % reduction ([1]; total patients, 500 mg, wk 12): 41%; Worst Knee Pain Score ([1]; total patients, 500 mg, wk 12, n=75, baseline 6.87, p=0.249): 3.99; dose media plasma concentrations, dose relationship ([2]; 500 mg and 250 mg daily CBD doses): dose proportional; plasma concentration of the 500 mg dose relative to the 250 mg dose ([2]; 500 mg vs 250 mg daily): approximately two times
